Read-outs that look alike come from different tables or passages of the source.
Molecular target: central M2 cholinergic receptors (Homo sapiens, UniProt P08172)
Conditions: mean of 11 subjects; for K1 (rate constant for transfer from plasma to the tissue) / VT (total distribution volume) / K2 (tissue clearance rate constant): 1TKA
Source text: Synapse 49:150-156 (2003). […] Carson R E, Kiesewetter D O, Jagoda E, Der M G, Herscovitch P, Eckelman W C, Muscarinic cholinergic receptor measurements with [^18F]FP-TZTP: control and competition studies. […] J Nucl Med 40:30P (1999).
Step 1: To calculate group mean parameter values that can be used for computer simulation analysis, ROI TACs were fitted by one-tissue kinetic analysis “1TKA” using individual metabolite-corrected plasma input functions. The mean 1TKA parameter values from 11 subjects were then used to generate noise-free TAC data as described below in Step 3.
Step 2: ROI TAC percent noise was calculated based on deviations from 1TKA fitting (100×SD/mean) for the latter portion of the TAC (60 to 120 min) and the mean percent noise over these 11 subjects was calculated (Table 2).

central M2 cholinergic receptors, sequence (P08172 whole entry): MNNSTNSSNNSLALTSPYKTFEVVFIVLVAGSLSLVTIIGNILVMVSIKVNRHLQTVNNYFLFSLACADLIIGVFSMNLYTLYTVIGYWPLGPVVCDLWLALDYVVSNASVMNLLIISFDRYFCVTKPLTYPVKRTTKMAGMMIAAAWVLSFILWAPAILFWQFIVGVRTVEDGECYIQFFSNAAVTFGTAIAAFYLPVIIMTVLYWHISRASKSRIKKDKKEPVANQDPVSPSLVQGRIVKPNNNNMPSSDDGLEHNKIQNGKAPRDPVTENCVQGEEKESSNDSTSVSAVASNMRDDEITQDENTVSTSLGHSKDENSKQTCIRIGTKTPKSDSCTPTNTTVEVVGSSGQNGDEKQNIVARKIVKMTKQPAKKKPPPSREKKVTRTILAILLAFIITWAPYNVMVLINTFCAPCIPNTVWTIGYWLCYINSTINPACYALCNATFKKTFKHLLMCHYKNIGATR

CN1CCC=C(c2nsnc2SCCC[18F])C1 [[^18F]FP-TZTP, 3-(3-(3-[18F]Fluropropyl)thio-1,2,5-thiadiazol-4-yl)-1,2,5,6 tetrahydro-1-methylpyridine]
K1 (rate constant for transfer from plasma to the tissue) (cerebellum (input region, K'1)): 0.466 mL/min/cm^3 | VT (total distribution volume) (cerebellum (input region, V'T)): 43 mL/cm^3 | K2 (tissue clearance rate constant) (cerebellum (input region, k'2)): 0.0110 min⁻¹ | k2/k′2 (thalamus k2 relative to cerebellum k′2): 1.60 | K1 (rate constant for transfer from plasma to the tissue) (thalamus): 0.506 mL/min/cm^3 | K2 (tissue clearance rate constant) (thalamus): 0.0176 min⁻¹ | VT (total distribution volume) (thalamus): 29 mL/cm^3
